Ends that are not written are not given here.

The subject of data set [1] is HGPS cells. Particulars: cited from earlier work. An excerpt: (§1) At present, clinical drugs for HGPS are very rare except for Zokinvy (lonafarnib), which has been approved by the United States (US) Food and Drug Administration (FDA). […] Recently, some gene therapies for HGPS treatment have been developed. The clustered regularly interspaced short palindromic repeat–adeno-associated virus 9 system is used to reduce the expression of progerin and the adenine base editor–adeno-ass ...

For data set [2] the following is noted: in vivo; cited from earlier work.
Source text: as §1

Data set [3] concerns HGADFN003 cells. The data set can be described thus: SA-β-gal staining of HGADFN003 cells. It is filed as cell-based, human. Particulars: for SA-β-gal positive cells: HGADFN003, Extended Data Fig. 10c. As to the method:
SA-β-gal staining was performed as previously described. Cells were fixed in 0.5% glutaraldehyde for 15 min at room temperature, washed three times with PBS (pH 6.0) containing 1 mM MgCl2 and exposed overnight 37 °C to containing 1 mg ml^–1 5-bromo-4-chloro-3-indolyl-β-D-galactopyranoside (MCE, catalog no. HY-15934), 0.12 mM potassium ferrocyanide (Sigma, catalog no. P3289), 0.12 mM potassium ferricyanide (Sigma, catalog no. P8131) and 1 mM MgCl2 PBS buffer (pH 6.0). Cells were washed three times with H2O and observed under a microscope (OLYMPUS CKX53). SA-β-gal positive cells were quantified by investigators who were blinded to the identity of the analyzed cell.

Data set [4] relates to BUBR1 / CyclinA2 in HGADFN003 cells. The data set can be described thus: Western blot of BUBR1 and CyclinA2 in HGADFN003 cells. It is filed as cell-based, human. The conditions noted are these: HGADFN003. As to the method: Western blot was performed as previously described. Cells were lysed in 1× Laemmli sample buffer after washing twice in cold PBS without calcium and magnesium. Protein concentrations were determined using the bicinchoninic acid (BCA) protein assay. Protein lysates were subjected to SDS–PAGE, transferred to 0.45-μm pore size hydrophobic PVDF transfer membrane (Merck Millipore), detected with the appropriate primary antibodies coupled with horseradish peroxidase-conjugated corresponding secondary antibodies, and visualized using enhanced chemiluminescence ECL reagent (GE Healthcare). The Tanon 5500 high-definition low-illumination CCD system (Tanon FLI Capture v.1.02) was used to capture chemiluminescent signals.
Background: A western blot detects proteins with antibodies after separation by electrophoresis.

In data set [5] the test system is HGADFN003 cells. Description: Ki67 immunofluorescence of HGADFN003 cells. It is filed as cell-based, human. The conditions noted are these: for Ki67 positive cells: HGADFN003, Extended Data Fig. 10e. Here is the method: (§2) Immunofluorescence was performed as described previously. Cells were plated on cover slips in 12-well plates, left overnight before the treatment. Cells were fixed in 1% formaldehyde in culture medium for 10 min at 37 °C and permeabilized with 0.2% Triton X-100 in PBS for 10 min at room temperature. Cells were washed twice in PBS and blocked for 1 h with 5% BSA in PBS and then incubated with primary antibodies at 4 °C overnight, washed three times in PBS and incubated with secondary antibodies for 1 h at room temperature. Cell nuclei were counterstained with a 500 nM concentration of 4,6-diamidino-2-phenylindole (DAPI) (Sigma). Images were acquired by a fluorescence microscope (OLYMPUS FV-1000, Carl Zeiss LSM880 or Leica DMi8) and analyzed with software NIS-Elements AR v.5.0.1 (Nikon), FLUOVIEW v.4.2b (OLYMPUS), ZEN v.2.3 SP1 (Carl Zeiss) and Leica Application Suite X v.3.6.0.24 (Leica). Cells were quantified by investigators who were blinded to the identity of the analyzed cell.

Data set [6] deals with BUBR1–progerin interaction. Description: Immunofluorescence of BUBR1 in IMR90 cells with FTI or UPCP. Type of data set: cell-based, human. As to the method:
as §2

Data set [7] deals with BUBR1 mRNA 3ʹ-UTR. Description: Luciferase activity assay of BUBR1 mRNA 3ʹ-UTR in HEK-293T cells. Type of data set: cell-based. The conditions noted are these: Fig. 4k, Vector = 1, P=0.0012. Here is the method:
The experiments were performed as described previously. The BUBR1 (–1,200 to +100) promoter or the DNA fragment of BUBR1 mRNA 3′-UTR was inserted into the pGL4.20 vector. Cells were plated in 24-well plates. After 24 h, cells were cotransfected with 200 ng of the indicated firefly luciferase reporter plasmid and 50 ng of Renilla luciferase normalization control plasmid using PEI. At 48 h after transfection, cell lysates were collected to measure luciferase activity using the Dual-Luciferase Reporter Assay System (Promega, catalog no. E1910) according to the manufacturer’s instructions. Luciferase reporter assay was carried out on an TD-20/20 Turner Designs luminometer, data were analyzed and further processed in Microsoft Excel and GraphPad Prism v.7.

Data set [8] has as its system PTBP1–BUBR1 mRNA 3′-UTR. Description: RIP assay of PTBP1 and BUBR1 mRNA 3′-UTR in HEK-293T cells. Type of data set: cell-based. Here is the method:
RIP and RNA pulldown assays were performed as previously described. The RIP experiment was carried out using the EZ-Magna RIP Kit (Millipore, catalog no. 17-701). The coprecipitated RNAs were extracted through Trizol reagent and detected by RT-PCR. The primer sequences for PCR, synthesized by Comate Bioscience, were as follows:
BUBR1-3′UTR_fwd (5′-[…]-3′) and BUBR1-3′UTR_rev (5′- […]-3′).

The subject of data set [9] is HEK-293T cells. Description: Immunofluorescence localization of Flag-progerin-C in HEK-293T cells. Type of data set: cell-based. The conditions noted are these: Flag-progerin-C expressed in HEK-293T. Here is the method:
as §2

Data set [10] concerns progerin–BUBR1 interaction. The data set can be described thus: CoIP of progerin and BUBR1 in HEK-293T cells. Type of data set: cell-based. Particulars: HEK-293T cotransfected with Flag-progerin-C 5, 10, 15 μg and HA-progerin. Here is the method: Detailed descriptions of CoIP were described previously[55],[56]. Cells were harvested and washed three times in cold PBS, then lysed in CoIP buffer (25 mM Tris-HCl (pH 7.5), 150 mM KCl, 5 mM EDTA, and 0.5% NP-40) plus protease inhibitor cocktail tablet (Roche). Incubate on ice and shock lysates on the vortex shaker 15 times for 30 s each. Microcentrifuge in 12,000g for 15 min at 4 °C, collect the supernatant, and incubate with 3 μg primary antibodies with gentle shaking overnight at 4 °C, followed by adding 20–40 μl Pure Proteome Protein A/G Mix Magnetic Beads (Millipore, catalog no. […]02) for 3 h. Wash the beads three times with 1 ml CoIP buffer for 8 min each, resuspend in 50 μl 1× loading buffer, and incubate at 100 °C for 8 min. Throw beads away and analyze by immunoblotting.

With neuropeptide Y, the “cellular HGPS aging phenotype” value in data set [1] is “delays the cellular HGPS aging phenotype by stimulating autophagy and decreasing progerin accumulation”.

As to `NC(=O)N1CCC(CC(=O)N2CCC([C@H]3c4ncc(Br)cc4CCc4cc(Cl)cc(Br)c43)CC2)CC1` [Zokinvy (lonafarnib), lonafarnib], in [2], the adverse reactions entry was “diarrhea and vomiting”.

As for `COC(=O)[C@H](CCSC)NC(=O)c1ccc(NC[C@@H](N)CS)cc1-c1ccccc1` [FTI-277, reference compound], in data set [3] (HGADFN003), the “SA-β-gal activity (FTI-277/UPCP comparison, words)” value was “decreased the activity of SA-β-gal”. Also, the SA-β-gal positive cells in data set [3] (replicate 1) amounted to 20%; in [3] (replicate 2), 15%; in data set [3] (replicate 3), 13%. Moreover, in [4], the “BUBR1 expression (FTI-277/UPCP comparison, words)” value is on record as “increasing expression of BUBR1”. In addition, the “CyclinA2 expression (FTI-277/UPCP comparison, words)” value in data set [4] was “increasing expression of BUBR1, CyclinA2”. Besides, the “Ki67 expression (FTI-277/UPCP comparison, words)” value in [5] (HGADFN003) is “increasing expression of BUBR1, CyclinA2 and Ki67”. Besides, the results for the Ki67 positive cells in [5] (replicate 1), in data set [5] (replicate 2) and in [5] (replicate 3) were 57%, 61% and 75%, respectively. Also, in data set [6], the “block of the interaction of BUBR1 and progerin” value was “failed to block the interaction of BUBR1 and progerin”.

With PTBP1, the “Relative luciferase activity of BUBR1 3'UTR (PTBP1/Vector)” value in [7] (replicate 1) was 3.3; in data set [7] (replicate 2), 4; in data set [7] (replicate 3) it was 3. Further, the “PTBP1 enrichment on BUBR1-3'UTR (2-ΔΔCt)” value in [8] (Fig. 4i, IgG = 1, P=0.0086, replicate 1) worked out at 21.8107; in data set [8] (Fig. 4i, IgG = 1, P=0.0086, replicate 2), 40.6928; in data set [8] (Fig. 4i, IgG = 1, P=0.0086, replicate 3) it was 24.8579; in [8] (Fig. 4n, PTBP1, Vector = 1, P<0.0001 vs Vector, replicate 1) it was 12.7685; in [8] (Fig. 4n, PTBP1, Vector = 1, P<0.0001 vs Vector, replicate 2), 13.1604; in data set [8] (Fig. 4n, PTBP1, Vector = 1, P<0.0001 vs Vector, replicate 3), 13.6473.

For “progerin-C: progerin C-terminal region (aa residues 565–614), expressed in cells (HHGSHCSSSGDPAEYNLRSRTVLCGTCGQPADKASASGSGAQSPQNCSIM; cysteine pairing not given here; also: 3×Flag tag, end not given here)”, in data set [9], the cellular location entry was “distributed throughout the cell”. In addition, in data set [10], the “competition with progerin to bind BUBR1” value was “competes with progerin to bind BUBR1”.
